The values below come from patent US7595409B2, “3,4-diamino-3-cyclobutene-1,2-dione derivatives as potassium channel openers” (Janssen Pharmaceutica N.V., priority 2006, dated 2009).

The target in the test is T1, KATP channels (Homo sapiens, UniProt O60706).
T1 construct: TE671 human medulloblastoma cells were obtained from ATCC; host or cells: TE671 human medulloblastoma cells
The test can be described thus: Potassium Channel Assay (FLIPR membrane potential, TE671 cells). As to conditions: 30 μM test compound; TE671 human medulloblastoma cells; FLIPR Membrane Potential Assay Dye; room temperature. The test is classed as cell-based. On the procedure:
TE671 human medulloblastoma cells were obtained from ATCC and grown in Dulbecco's modified Eagle's medium (DMEM) supplemented with 10% fetal bovine serum, 100 U/ml penicillin and 100 U/ml streptomycine.
The day before testing, the cells were plated in black 96-well plates at 50 K/well. On the day of testing, the growth media was removed, then 100 μl of FLIPR buffer (20 mM 4-(2-hydroxyethyl)-1-piperizine ethane sulfonic acid (HEPES), 120 mM NaCl, 2 mM KCl, 2 mM CaCl2, 1 mM MgCl2, 5 mM Glucose) and 100 μl of Membrane Potential Assay Dye (Molecular Devices) dissolved in FLIPR buffer were added to each well. The cells were incubated at room temperature for 15 to 30 min.
The effect of test compounds on KATP channels were evaluated on a fluorometric imaging plate reader (FLIPR, Molecular Devices) at room temperature. After a baseline period, 50 μl of 5× stock solution of test compound prepared in FLIPR buffer was added and fluorescent change was monitored for 3 minutes. After this reading, glyburide, a KATP channel blocker, was added to a final concentration of 5 μM to check the specificity of the test compound as a KATP channel openers. Hyperpolarization resulting from KATP channel opening was observed as a decrease in fluorescent intensity.
Representative compounds of the present invention were tested according to the procedure described above, with results as listed in Table 2 below.

T1 sequence (O60706 1-1549 isoform O60706-2): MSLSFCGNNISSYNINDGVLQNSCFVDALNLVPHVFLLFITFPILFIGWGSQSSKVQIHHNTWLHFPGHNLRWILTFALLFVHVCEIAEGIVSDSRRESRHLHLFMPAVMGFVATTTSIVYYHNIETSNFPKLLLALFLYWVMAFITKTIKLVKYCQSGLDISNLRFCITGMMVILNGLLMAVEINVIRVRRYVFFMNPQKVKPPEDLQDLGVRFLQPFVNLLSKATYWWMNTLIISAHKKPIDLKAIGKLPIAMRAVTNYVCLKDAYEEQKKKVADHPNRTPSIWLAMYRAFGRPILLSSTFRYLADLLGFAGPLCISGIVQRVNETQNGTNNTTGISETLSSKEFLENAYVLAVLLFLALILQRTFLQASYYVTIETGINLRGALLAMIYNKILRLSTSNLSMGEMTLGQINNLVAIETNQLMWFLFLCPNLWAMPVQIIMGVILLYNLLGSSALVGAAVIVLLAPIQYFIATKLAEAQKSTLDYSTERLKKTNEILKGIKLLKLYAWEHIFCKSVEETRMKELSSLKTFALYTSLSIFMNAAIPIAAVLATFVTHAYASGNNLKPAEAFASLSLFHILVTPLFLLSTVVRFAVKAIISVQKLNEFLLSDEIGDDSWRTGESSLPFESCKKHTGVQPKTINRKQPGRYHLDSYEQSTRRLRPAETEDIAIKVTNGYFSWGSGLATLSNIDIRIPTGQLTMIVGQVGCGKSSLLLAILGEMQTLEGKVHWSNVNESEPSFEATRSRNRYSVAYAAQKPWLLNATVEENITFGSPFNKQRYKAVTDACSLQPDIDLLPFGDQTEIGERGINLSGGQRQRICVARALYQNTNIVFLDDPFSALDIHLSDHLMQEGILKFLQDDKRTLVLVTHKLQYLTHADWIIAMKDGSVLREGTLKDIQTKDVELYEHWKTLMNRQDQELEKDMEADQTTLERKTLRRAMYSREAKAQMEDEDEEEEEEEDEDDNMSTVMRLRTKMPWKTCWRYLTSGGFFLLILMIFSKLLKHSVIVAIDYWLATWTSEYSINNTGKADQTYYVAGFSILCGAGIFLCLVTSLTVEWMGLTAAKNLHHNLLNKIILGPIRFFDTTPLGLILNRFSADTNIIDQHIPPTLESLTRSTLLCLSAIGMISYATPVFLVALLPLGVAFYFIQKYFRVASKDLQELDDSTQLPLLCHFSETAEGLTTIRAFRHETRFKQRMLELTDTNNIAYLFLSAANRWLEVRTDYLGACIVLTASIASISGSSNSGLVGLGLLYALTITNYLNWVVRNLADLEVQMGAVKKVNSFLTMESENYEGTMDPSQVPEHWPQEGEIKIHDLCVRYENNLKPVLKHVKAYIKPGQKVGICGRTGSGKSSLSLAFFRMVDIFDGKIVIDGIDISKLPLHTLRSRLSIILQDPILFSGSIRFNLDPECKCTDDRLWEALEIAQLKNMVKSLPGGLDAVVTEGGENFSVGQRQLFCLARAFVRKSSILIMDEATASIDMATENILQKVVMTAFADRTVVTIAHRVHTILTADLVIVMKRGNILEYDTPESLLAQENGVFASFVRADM
T1 sequence (Q14654 whole entry partner): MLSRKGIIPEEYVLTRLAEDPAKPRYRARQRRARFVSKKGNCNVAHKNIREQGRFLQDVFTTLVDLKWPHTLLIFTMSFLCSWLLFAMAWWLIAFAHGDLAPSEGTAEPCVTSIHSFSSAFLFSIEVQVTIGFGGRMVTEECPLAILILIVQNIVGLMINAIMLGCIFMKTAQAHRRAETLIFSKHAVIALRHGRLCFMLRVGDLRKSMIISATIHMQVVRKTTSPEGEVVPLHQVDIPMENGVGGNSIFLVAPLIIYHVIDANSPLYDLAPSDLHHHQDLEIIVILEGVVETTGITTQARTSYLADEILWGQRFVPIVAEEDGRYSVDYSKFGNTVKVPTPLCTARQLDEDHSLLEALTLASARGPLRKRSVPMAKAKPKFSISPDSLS

As for `CCc1cc(C#N)ccc1Nc1c(NC2CCCC23CCCO3)c(=O)c1=O` (centres unmarked) [Compound 1, 3-ethyl-4-[[2-(1-oxaspiro[4.4]non-6-ylamino)-3,4-dioxo-1-cyclobutene-1-yl]amino]-benzonitrile], the “% Stimulation @ 30 μM” value is on record as 94%. As for `Cc1cc(Cl)cc(Cl)c1CNc1c(NC2CCCC23CCCO3)c(=O)c1=O` (centres unmarked) [Compound 3, 3-[[(2,4-dichloro-6-methylphenyl)methyl]amino]-4-(1-oxaspiro[4.4]non-6-ylamino)-3-cyclobutene-1,2-dione], the figure is 49%.
